Assays:
Assay in all cases: relative viability (nuclei count vs DMSO), 5 days (fraction); higher = more cells survive
[1] = compound: COc1cc2ncn(-c3cc(OCc4ccccc4C(F)(F)F)c(C(N)=O)s3)c2cc1OC + C[C@@H](Oc1cc(-c2cnn(C3CCNCC3)c2)cnc1N)c1c(Cl)ccc(F)c1Cl [Crizotinib] (partner 1 µM)
Method in brief: (§1)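 Lung cancer cell lines were pin-tool dosed in 1536-well plates on the day after seeding, with either a lone drug or a fixed anchor-drug dose plus five library-drug doses (not always all listed) in √10 steps. Nuclei were counted on 4× images after 5 days. Relative viability is the ratio of treated-well to vehicle-well nuclei counts, with each value a median of duplicate plates.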

[2] = compound: COc1cc2ncn(-c3cc(OCc4ccccc4C(F)(F)F)c(C(N)=O)s3)c2cc1OC + Cc1nc(Nc2ncc(C(=O)Nc3c(C)cccc3Cl)s2)cc(N2CCN(CCO)CC2)n1 [Dasatinib] (partner 0.075 µM)
Method in brief: as §1

[3] = compound: COc1cc2ncn(-c3cc(OCc4ccccc4C(F)(F)F)c(C(N)=O)s3)c2cc1OC + CS(=O)(=O)N1CCN(Cc2cc3nc(-c4cccc5[nH]ncc45)nc(N4CCOCC4)c3s2)CC1 [Pictilisib] (partner 1 µM)
Method in brief: as §1

[4] = compound: COc1cc2ncn(-c3cc(OCc4ccccc4C(F)(F)F)c(C(N)=O)s3)c2cc1OC + O=C(CCCCCCC(=O)Nc1ccccc1)NO [Vorinostat] (partner 1 µM)
Method in brief: as §1

Cell Line	relative viability ([1]; first compound 0.05 µM)	relative viability ([1]; first compound 0.1581 µM)	relative viability ([1]; first compound 0.5 µM)	relative viability ([1]; first compound 1.581 µM)	relative viability ([1]; first compound 5 µM)	relative viability ([2]; first compound 0.05 µM)	relative viability ([2]; first compound 0.1581 µM)	relative viability ([2]; first compound 0.5 µM)	relative viability ([2]; first compound 1.581 µM)	relative viability ([2]; first compound 5 µM)	relative viability ([3]; first compound 0.05 µM)	relative viability ([3]; first compound 0.1581 µM)	relative viability ([3]; first compound 0.5 µM)	relative viability ([3]; first compound 1.581 µM)	relative viability ([3]; first compound 5 µM)	relative viability ([4]; first compound 0.05 µM)	relative viability ([4]; first compound 0.1581 µM)	relative viability ([4]; first compound 0.5 µM)	relative viability ([4]; first compound 1.581 µM)	relative viability ([4]; first compound 5 µM)
ChaGo-K-1	1.07	0.944	0.831	0.434	0.38	0.629	0.332	0.574	0.17	0.138	0.676	0.419	0.594	0.322	0.248	0.775	0.721	0.629	0.232	0.162
EKVX	1.04	1.04	0.731	0.225	0.563	0.661	0.604	0.425	0.271	0.224	0.42	0.516	0.427	0.262	0.291	0.745	0.836	0.477	0.363	0.167
EMC-BAC-2	0.893	0.855	0.789	0.439	0.154	0.328	0.361	0.296	0.168	0.139	0.581	0.46	0.526	0.352	0.139	0.899	0.535	0.305	0.223	0.158
EPLC-272H	0.86	0.709	0.323	0.0912	0.134		0.408	0.142	0.0755	0.103	0.354	0.202	0.287	0.173	0.135	0.175	0.181	0.0719	0.077	0.12
H3255	0.777	0.981	0.574	0.238	0.229	0.346	0.349	0.344		0.279	0.458	0.467	0.247	0.21	0.187	0.806	0.492	0.627	0.606	0.481
HARA	1.18	0.981	0.786	0.275	0.119	0.242	0.299	0.284	0.0989	0.0669	0.443	0.38	0.274	0.0824	0.0556	0.358	0.421	0.237	0.0932	0.0592
HCC-15	0.855	0.716	0.461	0.152	0.11	0.582	0.548	0.242	0.105	0.0655	0.69	0.707	0.549	0.163	0.125	0.618	0.769	0.349	0.139	0.127
HCC-78	0.314	0.345	0.245	0.257	0.257	0.463	0.537	0.306	0.317	0.206	0.221	0.188	0.186	0.206	0.186	0.483	0.396	0.281	0.261	0.223
HCC-366	0.788	0.545	0.117	0.013	0.0129	0.675	0.67	0.338	0.0209	0.0192	0.149	0.12	0.0681	0.0359	0.015	0.347	0.3	0.0923	0.0208	0.0152
HCC-827	0.925	0.871	0.698	0.341	0.287	0.321	0.359	0.222	0.293	0.292	0.917	1.13	0.968	0.77	0.56	0.995	0.887	0.763	0.376	0.445
HOP-62	0.765	0.935	0.824	0.206	0.101	0.653	0.694	0.597	0.15	0.114	0.753	0.805	0.566	0.123	0.0836	0.687	0.706	0.202	0.129	0.0896
LC-2-ad	0.485	0.422	0.295	0.212	0.287	0.639	0.594	0.201	0.123	0.133	0.383	0.108	0.0797	0.0935	0.0834	0.559	0.543	0.129	0.161	0.129
LCLC-97TM1	0.419	0.331	0.165	0.152	0.145	0.743	0.74	0.761	0.214	0.128	0.203	0.2	0.123	0.134	0.125	0.803	0.822	0.0658	0.0665	0.0652
LCLC-103H	0.999	1.11	0.851	0.523	0.267	0.466	0.522	0.341	0.176	0.175	0.594	0.695	0.54	0.271	0.135	0.808	0.799	0.327	0.261	0.199
LK-2	0.247	0.247	0.245	0.209	0.204	0.282	0.369	0.262	0.154	0.151	0.548	0.566	0.307	0.263	0.306	0.241	0.159	0.125	0.124	0.12
LOU-NH91	0.772	0.779	0.626	0.483	0.459	0.6	0.599	0.459	0.31	0.387	0.554	0.544	0.51	0.399	0.418	0.903	1.04	0.683	0.365	0.29
LU99A	0.59	0.526	0.579	0.244	0.197	0.493	0.548	0.256	0.182	0.135	0.307	0.342	0.271	0.159	0.15	0.445	0.401	0.196	0.123	0.115

Source: the supplement of paper PMC10307832
